Tested on: contact dermatitis from poison sumac
Assay: Case-study: contact dermatitis from poison sumac
Format: in vivo, human
Settings: used by the patient before Composition I
Description: In one case-study, a patient had contact dermatitis from poison sumac which was on the volar surfaces of both arms from the hand to the elbow. […] They continued application of the Composition I, TID (three daily doses), and by four days, their skin had healed.

SMILES: C[C@]12CCC(=O)C=C1CC[C@@H]1[C@@H]2C(=O)C[C@@]2(C)[C@H]1CC[C@]2(O)C(=O)CO [cortisone]
- relief from earlier topical treatments: without relief

From patent US20120201915A1, “THERAPEUTIC COMPOSITION” (priority 2009, published 2012)
